Results as given in the NIST ThermoML archive (doi:10.1016/j.fluid.2006.01.027).
± gives the expanded uncertainty stated by the source.

Conditions: Liquid, Pulse-echo method

C=CCCCCCCCCCCCCCC [1-hexadecene]
speed of sound [m/s]
Conditions	303.15 K	313.15 K	323.15 K	333.15 K	343.15 K	353.15 K	363.15 K
100 kPa	1314.4 ± 2.9	1278.1 ± 2.9	1242.5 ± 2.8	1207.6 ± 2.8	1173.2 ± 2.7	1139.5 ± 2.6	1106.4 ± 2.6
2500 kPa	1327.9 ± 3	1292.1 ± 2.9	1257.1 ± 2.8	1222.7 ± 2.8	1188.9 ± 2.7	1155.8 ± 2.7	1123.3 ± 2.6
5000 kPa	1341.7 ± 3	1306.4 ± 2.9	1271.9 ± 2.9	1238 ± 2.8	1204.9 ± 2.7	1172.3 ± 2.7	1140.5 ± 2.6
10000 kPa	1368.2 ± 3	1333.9 ± 3	1300.3 ± 2.9	1267.5 ± 2.9	1235.4 ± 2.8	1204 ± 2.7	1173.2 ± 2.7
15000 kPa	1393.7 ± 3.1	1360.2 ± 3	1327.5 ± 3	1295.6 ± 2.9	1264.4 ± 2.8	1233.9 ± 2.8	1204.1 ± 2.7
20000 kPa	1418.2 ± 3.1	1385.5 ± 3.1	1353.6 ± 3	1322.4 ± 2.9	1292.1 ± 2.9	1262.4 ± 2.8	1233.5 ± 2.8
30000 kPa	1464.6 ± 3.2	1433.2 ± 3.1	1402.7 ± 3.1	1372.9 ± 3	1343.9 ± 3	1315.7 ± 2.9	1288.2 ± 2.9
40000 kPa	1508 ± 3.3	1477.8 ± 3.2	1448.4 ± 3.2	1419.8 ± 3.1	1392 ± 3.1	1364.9 ± 3	1338.6 ± 3
60000 kPa	1587.7 ± 3.4	1559.3 ± 3.4	1531.8 ± 3.3	1505.1 ± 3.3	1479.1 ± 3.2	1453.9 ± 3.2	1429.4 ± 3.1
80000 kPa	1659.7 ± 3.6	1632.8 ± 3.5	1606.8 ± 3.5	1581.5 ± 3.4	1556.9 ± 3.4	1533.1 ± 3.3	1510 ± 3.3
100000 kPa	1725.7 ± 3.7	1700 ± 3.6	1675.2 ± 3.6	1651.1 ± 3.5	1627.7 ± 3.5	1605 ± 3.5	1583 ± 3.4
